Results: the NIST ThermoML archive (doi:10.1021/je100638g)

Assays:
[1] = Molar enthalpy of transition or fusion; conditions: Crystal; DSC
[2] = for mass density / viscosity: 100 kPa, Liquid; for Normal melting temperature: Crystal, DTA
[3] = xn = mol fraction of the nth substance listed; conditions: 100 kPa, Liquid

CCCn1cc[n+](C)c1.F[P-](F)(F)(F)(F)F [1-methyl-3-propylimidazolium hexafluorophosphate]
Conditions	Molar enthalpy of transition or fusion [kJ/mol]	Normal melting temperature [°C]
[1]	16.7	–
[2]	–	38.5

[2]
Conditions	mass density [kg/m3]	viscosity [mPa·s]
318.15 K	1397.5	85.01
323.15 K	1393.2	68.18
328.15 K	1389	55.46
333.15 K	1384.7	45.7
338.15 K	1380.5	38.09
343.15 K	1376.3	32.1
348.15 K	1372.1	27.32
353.15 K	1367.9	23.47
358.15 K	1363.8	20.34
363.15 K	1359.6	17.77

CCCn1cc[n+](C)c1.F[P-](F)(F)(F)(F)F [1-methyl-3-propylimidazolium hexafluorophosphate] + O
[3], x2 = 0.306
Conditions	mass density [kg/m3]	viscosity [mPa·s]
303.15 K	1389.2	39.41
308.15 K	1384.7	32.25
313.15 K	1380.2	26.84
318.15 K	1375.7	22.61
323.15 K	1371.3	19.29
328.15 K	1366.9	16.58
333.15 K	1362.5	14.39
338.15 K	1358.1	12.61
343.15 K	1353.8	11.13
348.15 K	1349.4	9.905
353.15 K	1345.1	8.874
358.15 K	1340.8	7.983
363.15 K	1336.5	7.228

CCCc1ccc[n+](C)c1.F[P-](F)(F)(F)(F)F [1-methyl-3-propylpyridinium hexafluorophosphate]
Conditions	Molar enthalpy of transition or fusion [kJ/mol]	Normal melting temperature [°C]
[1]	15	–
[2]	–	38.1

[2]
Conditions	mass density [kg/m3]	viscosity [mPa·s]
318.15 K	1365.4	132.87
323.15 K	1361.3	102.17
328.15 K	1357.3	79.97
333.15 K	1353.2	63.67
338.15 K	1349.2	51.52
343.15 K	1345.2	42.29
348.15 K	1341.2	35.16
353.15 K	1337.2	29.58
358.15 K	1333.2	25.15
363.15 K	1329.2	21.59

CCCc1ccc[n+](C)c1.F[P-](F)(F)(F)(F)F [1-methyl-3-propylpyridinium hexafluorophosphate] + O
[3], x2 = 0.249
Conditions	mass density [kg/m3]	viscosity [mPa·s]
303.15 K	1362.5	73.39
308.15 K	1358.3	57.55
313.15 K	1354	45.98
318.15 K	1349.8	37.36
323.15 K	1345.6	30.81
328.15 K	1341.4	25.75
333.15 K	1337.2	21.76
338.15 K	1333.1	18.6
343.15 K	1328.9	16.04
348.15 K	1324.8	13.98
353.15 K	1320.7	12.28
358.15 K	1316.6	10.86
363.15 K	1312.5	9.677
